Read-outs that look alike come from different tables or passages of the source.

The subject of assay [1] is GVH reaction. In words: Graft-versus-host (GVH) reaction, spleen weight. In kind it is in vivo, mouse (C57BL spleen cells into C57BL×C3H F1 hybrid). How it is done: In this test, parental (C57BL) mouse spleen cells are injected into mice of an F1 hybrid strain (C57BL×C3H). […] As a consequence, the recipient's spleen becomes enlarged. Immunosuppression prevents or reduces this enlargement. Thus, spleen weights provide a measure of the GVH reaction and its reduction under immunosuppression. A modification of Simonsen's original procedure (Ann. N.Y. Acad. Sci. 73:834, 1958) was employed. Large crops of spleen cells were obtained, without the generally employed manual teasing of spleens, by using Waring blendors with the cutting blades reversed. Two six-second blending periods buffeted the spleens (batches of 25 C57BL spleens in 25-ml saline) sufficiently to free the cells from the connective tissue. The latter was removed by filtration through several thicknesses of cheesecloth. Cell suspensions prepared in this fashion were standardized, by means of Levy-Hausser chamber counts, to contain 6×10^8 nucleated cells per ml. Groups of ten 16-18 gram C57BL×C3H mice were injected intraperitoneally with 1 ml of the donor cell suspension. Treatment, by the oral or subcutaneous route in 0.2 ml, was instituted 3 days prior to cell injection and continued daily for 13 days. Control animals received only cells and vehicle. The spleens were removed and weighed 10 days following cell injection. The results were expressed as mg spleen/gram body weight. Since the injection of syngeneic, i.e., C57BL×C3H, cells into the recipient mice produces a minor degree of splenomegaly, spleen weights of such animals were used to define 100% suppression of the GVH component in calculating percents of inhibition produced by the immunosuppressive compounds.

The subject of assay [2] is antibody (hemagglutinin) production against sheep red blood cells. In words: Mouse hemagglutinin assay, oral administration (antibody reduction). Type of assay: in vivo, mouse (male, random-bred, Swiss). As to conditions: Erythrocyte, nine daily doses, pooled sera of 5 mice, read-out: minimum effective dose (MED), lowest dose producing 75 percent or greater antibody reduction. The method, then: (§1) Groups of five 20-gram, male, random-bred, Swiss mice received intravenous injections of 5×10^7 sheep red blood cells. The cells for these injections were prepared from lamb's blood (collected in Alsever's solution) by washing three times with 0.85 percent saline and resuspending in 0.85 percent saline. Nine daily doses of each compound to be tested, solubilized in polyethylene glycol 400, were administered orally in 0.1 ml. doses, commencing three days prior to red blood cell injection. Several dose levels of each compound were employed, at 2-fold increments. A control group of mice, receiving a red blood cell injection and nine daily doses of vehicle instead of drug, was included. Six days after the antigen injections, the mice were bled by cardiac puncture and the sera from each 5-mouse group pooled. The serum pools, following complement inactivation, were assayed for hemagglutinin content by standard procedures, utilizing a mixture of serial 2-fold saline dilutions of the test sera with 0.5 percent sheep red blood cell suspensions in plastic depression trays. Following incubation of the trays for 3 hours at 37° C., the hemagglutination patterns were graded.

The subject of assay [3] is antibody (hemagglutinin) titer against sheep red blood cells. In words: Individual serum assay procedure (hemagglutinin titer). In kind it is in vivo. Particulars: Erythrocyte, ten daily doses, 10-mouse groups, read-out: Endpoint Dose (p <0.05), lowest dose significantly lowering antibody titer. The method, then: as §1, with “graded. […] The mice were bled as before, but the sera were titered individually rather than as a pool. Mean hemagglutinin values (log2)±S.E. were calculated for each 10-mouse group and p values (by Student's t Test), in comparison with the control group, were determined. […] The drugs were administered orally or subcutaneously in ten daily doses, commencing three days prior to red blood cell injection. Drugs were suspended in a vehicle composed of saline containing 0.125 percent methylcellulose and 0.2 percent nonionic emulsifying agent. Antibody (hemagglutinin) determinations were made seven days following a red blood cell injection.” for “graded.”

The subject of assay [4] is adjuvant-induced arthritis (uninjected hind paw swelling, bone damage). Put plainly: Adjuvant-induced arthritis test in rats. In kind it is in vivo, rat (male Lewis-Wistar). As to conditions: 30 mg/kg/day oral; for % inhibition (uninjected paw volume): printed under Day 18, formula in footnote drawing.
Where [5] appears, read: Day 11, TB control 2.02 ± 0.037.
Setting [6] is: Day 14, TB control 2.69 ± 0.106.
[7] abbreviates: Day 16, TB control 3.26 ± 0.202.
The mark [8] stands for this setting: Day 18, TB control 3.65 ± 0.227.

As to `COc1ccc2nc(NC(=O)Nc3ccccc3)sc2c1` [1-(6-methoxy-2-benzothiazolyl)-3-phenylurea, reference compound], the “Percent Inhibition” value in assay [1] (12.5 mg/kg × 13, oral, illustrative calculation with Syn. Control 5.20) is 74%. Moreover, in assay [1] (12.5 mg/kg × 13, oral, p<0.01 vs GVH control (11.55 ± 1.01), groups of 5 mice), the “Mg Spleen/g Body Wt. ± S.E.” value is reported as 6.86 ± 0.80 mg spleen/g body wt.
On to `Brc1ccc(C2Nc3cccc4cccc(c34)N2)cc1` [2,3-dihydro-2-(p-bromophenyl)-1H-perimidine], for which the minimal effective dose in assay [2] was 25 mg/kg.
On to `Brc1ccc(C2=Nc3cccc4cccc(c34)N2)cc1Br.Cl` [2-(3,4-dibromophenyl)-1H-perimidine hydrochloride], for which the minimal effective dose in assay [2] was 50 mg/kg.
Consider `Cl.Clc1ccc(C2=Nc3cccc4cccc(c34)N2)cc1Cl` [2-(3,4-dichlorophenyl)-1H-perimidine hydrochloride], for which the minimal effective dose in assay [3] (sc, subcutaneous) was less than 3.1 mg/kg; in assay [3] (oral) it was less than 3.1 mg/kg; in assay [2], 12.5 mg/kg.
For the compound `Cl.Clc1ccc(C2=Nc3cccc4cccc(c34)N2)cc1Br` [2-(3-bromo-4-chlorophenyl)-1H-perimidine hydrochloride], the minimal effective dose in assay [2] turned out to be 50 mg/kg.
On the same count and under the same terms, then `Cl.Clc1cc(C2=Nc3cccc4cccc(c34)N2)ccc1Br` [2-(4-bromo-3-chlorophenyl)-1H-perimidine hydrochloride], with 50 mg/kg; and `Brc1cccc(C2=Nc3cccc4cccc(c34)N2)c1.Cl` [2-(m-bromophenyl)-1H-perimidine hydrochloride], with 100 mg/kg.
Same read-out and setting: then `Cl.FC(F)(F)c1cccc(C2=Nc3cccc4cccc(c34)N2)c1` [2-(m-trifluoromethylphenyl)-1H-perimidine hydrochloride], with 100 mg/kg; and `Cl.FC(F)(F)C(F)(F)Oc1ccc(C2=Nc3cccc4cccc(c34)N2)cc1` [2-(p-PENTAFLUOROETHOXYPHENYL)-1H-PERIMIDINE HYDROCHLORIDE], with 100 mg/kg.
In the case of `F.FC(F)(F)Oc1ccc(C2=Nc3cccc4cccc(c34)N2)cc1` [2-(p-TRIFLUOROMETHOXYPHENYL)-1H-PERIMIDINE HYDROFLUORIDE], the minimal effective dose is 12.5 mg/kg in assay [3] (oral) and less than 100 mg/kg in assay [2].
Take `Cl.FC(F)(F)c1ccc(C2=Nc3cccc4cccc(c34)N2)cc1` [2-(p-TRIFLUOROMETHYLPHENYL)-1H-PERIMIDINE HYDROCHLORIDE]: the minimal effective dose in assay [3] (sc, subcutaneous) was less than 1.6 mg/kg; in assay [3] (oral) it was less than 1.6 mg/kg; in assay [2], 6.25 mg/kg. The “Percent Inhibition, GVH Series” value in assay [1] (1.6 mg/kg × 13, oral) amounted to 78%; in assay [1] (3.1 mg/kg × 13, oral), 96%; in assay [1] (6.2 mg/kg × 13, oral) it was 77%; in assay [1] (12.5 mg/kg × 13, oral) it was 53%; in assay [1] (25 mg/kg × 13, oral), 101%. Also, the “Mg Spleen/g mouse weight (mean + S.E.)” value in assay [1] (1.6 mg/kg × 13, oral, p <0.05, control 8.64 ± 1.10) is 5.66 ± 0.33 mg spleen/g mouse weight; in assay [1] (3.1 mg/kg × 13, oral, p <0.01, control 8.64 ± 1.10) it was 4.96 ± 0.31 mg spleen/g mouse weight; in assay [1] (6.2 mg/kg × 13, oral, p <0.05, control 8.64 ± 1.10), 5.67 ± 0.51 mg spleen/g mouse weight; in assay [1] (12.5 mg/kg × 13, oral, control 8.64 ± 1.10), 6.62 ± 1.17 mg spleen/g mouse weight; in assay [1] (25 mg/kg × 13, oral, p <0.005, control 8.64 ± 1.10), 4.75 ± 0.42 mg spleen/g mouse weight. Moreover, the “Uninjected Paw Volume” value in assay [4] (Day 9, TB control 1.94 ± 0.028) turned out to be 1.93 ± 0.081; in assay [4] (setting [5]), 1.95 ± 0.079; in assay [4] (setting [6]) it was 2.13 ± 0.148; in assay [4] (setting [7]) it was 2.35 ± 0.233; in assay [4] (setting [8]) it was 2.53 ± 0.39. In addition, the “Gross observation of X-ray photos, bone damage in injected and uninjected paws” value in assay [4] (day 18, bone damage very obvious in TB control) is recorded as “no bone damage”. In addition, in assay [4], the “% inhibition (uninjected paw volume)” value amounted to 69%.
Consider `Cl.FC(F)(F)Sc1ccc(C2=Nc3cccc4cccc(c34)N2)cc1` [2-(p-TRIFLUOROMETHYLTHIOPHENYL)-1H-PERIMIDINE HYDROCHLORIDE], for which the minimal effective dose in assay [3] (oral) is 50 mg/kg; in assay [2], less than 100 mg/kg.
On to `Brc1ccc(C2=Nc3cccc4cccc(c34)N2)cc1.Cl` [2-(p-bromophenyl)-1H-perimidine hydrochloride], for which the minimal effective dose is less than 3.1 mg/kg in assay [3] (sc, subcutaneous); 25 mg/kg in assay [3] (oral); 12.5 mg/kg in assay [2].
`Brc1ccc(C2=Nc3cccc4cccc(c34)N2)cc1` [2-(p-bromophenyl)-1H-perimidine]: the “Percent Inhibition, GVH Series” value in assay [1] (3.1 mg/kg × 13, subcutaneous) was determined as 19%; in assay [1] (6.2 mg/kg × 13, subcutaneous), 66%; in assay [1] (12.5 mg/kg × 13, subcutaneous), 79%; in assay [1] (25 mg/kg × 13, subcutaneous), 84%; in assay [1] (50 mg/kg × 13, subcutaneous), 102%. In addition, the “Mg Spleen/g mouse weight (mean + S.E.)” value in assay [1] (3.1 mg/kg × 13, subcutaneous, control 8.84 ± 0.72) was 8.08 ± 0.66 mg spleen/g mouse weight; in assay [1] (6.2 mg/kg × 13, subcutaneous, p <0.01, control 8.84 ± 0.72) it was 6.18 ± 0.39 mg spleen/g mouse weight; in assay [1] (12.5 mg/kg × 13, subcutaneous, p <0.005, control 8.84 ± 0.72), 5.64 ± 0.65 mg spleen/g mouse weight; in assay [1] (25 mg/kg × 13, subcutaneous, p <0.001, control 8.84 ± 0.72), 5.43 ± 0.41 mg spleen/g mouse weight; in assay [1] (50 mg/kg × 13, subcutaneous, p <0.001, control 8.84 ± 0.72), 4.70 ± 0.21 mg spleen/g mouse weight. For the same compound, the minimal effective dose in assay [2] came out at 25 mg/kg.
Turning to `Clc1ccc(C2=Nc3cccc4cccc(c34)N2)cc1` [2-(p-chlorophenyl)-1H-perimidine], in assay [2], the minimal effective dose was 100 mg/kg.
The same measure, in the same setting: then `Cn1cnc([N+](=O)[O-])c1Sc1ncnc2nc[nH]c12` [Azathioprine, reference compound], with 100 mg/kg.
On to `CC(C(=O)O)c1cccc(Oc2ccccc2)c1` (stereo not shown) [fenoprofen, reference compound], for which the “Uninjected Paw Volume” value in assay [4] (Day 9, TB control 1.94 ± 0.028) is 1.97 ± 0.023; in assay [4] (setting [5]) it was 2.11 ± 0.07; in assay [4] (setting [6]) it was 2.38 ± 0.099; in assay [4] (setting [7]), 2.7 ± 0.107; in assay [4] (setting [8]), 2.67 ± 0.128. Moreover, the “% inhibition (uninjected paw volume)” value in assay [4] amounted to 23%.

Values taken from patent US4224326A, “Immunosuppressive agents” (Eli Lilly and Company, priority 1978, dated 1980).
